What was measured:
[1] = target: NDM-1 (Klebsiella pneumoniae, UniProt C7C422); assay: biochemical; format: biochemical; conditions: CCF2-FA fluorescence assay, 2 hours at 25° C.
Method: (§1) The Class B enzyme activities were measured in the presence of the test inhibitor in a fluorescence assay against a commercially available substrate consisting of a cephalosporin core linking 7-hydroxycoumarin to fluorescein (CCF2-FA). The enzyme (NDM-1, IMP-1 or VIM-1) and the substrate were diluted in 100 mM KH2PO4 buffer (pH 7) containing 0.005% Tween-20 and 10 μM ZnSO4. In the assay, the final concentration of enzyme was 1 pM, 2 pM and 30 pM for NDM-1, IMP-1 and VIM-1, respectively, and the final concentration of CCF2-FA was 1.25 μM. The test inhibitor was dissolved in dimethylsulfoxide and diluted 1:50 in the assay, resulting in a final concentration range of 20 μM to 0.00063 μM. In a 384-well microplate, the test inhibitor was incubated with the metallo-β-lactamase enzyme and the substrate for 2 hours at 25° C. Fluorescence at 460 nm following excitation at 405 nm was measured. The IC50 value was determined from semi-logarithmic plots of enzyme inhibition versus inhibitor concentration, with a curve generated using a 4-parameter fit.

[2] = tested on: Escherichia coli expressing NDM-1 (CLB30016); format: cell-based; conditions: with imipenem 1 μg/ml; 95% inhibition of bacterial growth
Method: (§2) The bacterial strains tested included the clinical strains Escherichia coil expressing NDM-1 (CLB30005, CLB30016), Serratia marcescens expressing IMP-1 (CL5741), and Klebsiella pneumoniae expressing VIM-1 (H-LMA599644). Inhibitor activity was measured in the presence and absence of imipenem in a 384-well microplate.
(§3) The clinical strains CLB30016, CL5741 and IHMA599644 were grown on trypticase soy agar containing 5% sheep's blood. The bacteria on agar plates were incubated at 35° C. with humidity overnight. The following day, individual colonies from each clinical strain were picked and resuspended in 5 ml saline to attain an OD600 of […], for CLB30016, C15741 and IHMA599644, respectively. These were further diluted 1:100 into 1.1× CAMHB and used to inoculate the test wells as described below.
(§4) Imipenem in 10 mM 3-(N-morpholino)propanesulfonic acid (MOPS, pH 7) was stored in single use aliquots at −80° C. […] On the day of the assay, 4 μl of antibiotic was added to 45 μl of bacteria followed by 1 μl of test compound and mixed by pipetting and with an orbital shaker. The concentration of antibiotic used in the assay was 1 μg/ml. Microplates were covered and incubated at 35° C. for 22 hours to 24 hours. At the end of the incubation, absorbance was determined using a spectrophotometer. The synergistic concentration of MBLI was determined by identifying the lowest concentration of test compound in the presence of a given concentration of antibiotic that was required to inhibit 95% of the growth of the bacteria. The results for Examples 1-209 are reported in Table 1, expressed as the concentration of compound that potentiated the action of antibiotic (imipenem) affecting 95% inhibition of bacterial growth (MITC95).

[3] = tested on: Serratia marcescens expressing IMP-1 (CL5741); format: cell-based; conditions: with imipenem 1 μg/ml; 95% inhibition of bacterial growth
Method: as §2, §3, §4

[4] = tested on: Klebsiella pneumoniae expressing VIM-1 (IHMA599644); format: cell-based; conditions: with imipenem 1 μg/ml; 95% inhibition of bacterial growth
Method: as §2, §3, §4

[5] = tested on: P. aeruginosa MB9798 (efflux+, IMP-1 plasmid); conditions: for MB9798 MITC95 P. aeruginosa uM Efflux WT: efflux + (MB9798) strain, imipenem at 2 μg/mL, in the presence of a class A, C, D serine β-lactamase inhibitor closely related to relebactam; for Efflux ratio: fold difference between efflux+ (MB9798) and efflux− (MB9799) strains
Excerpt: (§5) The strain background is Pseudomonas aeruginosa PAO1. A wild-type (M135919) and an isogenic strain in which multiple efflux pumps have been disrupted genetically were used. The MBL IMP-1, obtained from a clinical isolate was introduced into the strain pair by the following process:
(§6) The plasmid DNA was transformed into parental MB5919 (oprD+, efflux+, inducible AmpC) and MB5890 (oprD+, efflux−, inducible AmpC) isogenic strains by electroporation.
(§7) The strain set was then used as a pair to determine the effect of metallo-β-lactamase inhibitors of Formula I on the MIC of imipenem and/or ceftazidime. A fixed concentration of antibiotic is included in standard microbroth MIC tests, usually at the CLSI breakpoint concentration, A fixed amount of a class A/C beta-lactamase inhibitor is also included to inhibit the resident Pseudomonas AmpC enzyme. A serial titration of the metallo-β-lactamase inhibitor was included and the concentration of metallo-β-lactamase inhibitor which restores susceptibility of the strain to the included antibiotic was recorded. That concentration of metallo-β-lactamase inhibitor was then compared between the two strains to determine the fold difference between the efflux+(MB9798) and efflux−(MI39799) strains, which indicates the extent to which the MBLi is subject to efflux.

[6] = target: VIM-1 (Pseudomonas aeruginosa (strain ATCC 15692 / DSM 22644 / CIP 104116 / JCM 14847 / LMG 12228 / 1C / PRS 101 / PAO1), UniProt A0A0F7KYQ8); assay: biochemical; conditions: CCF2-FA fluorescence assay, 2 hours at 25° C.; read-out: VIM1 IC50
Method: as §1

[7] = target: IMP-1 (Serratia marcescens, UniProt P52699); assay: biochemical; conditions: CCF2-FA fluorescence assay, 2 hours at 25° C.; read-out: IMP1 IC50
Method: as §1

[8] = tested on: P. aeruginosa MB9799 (efflux-, IMP-1 plasmid); format: cell-based, Pseudomonas aeruginosa; conditions: efflux − (MB9799) strain; imipenem at 2 μg/mL; in the presence of a class A, C, D serine β-lactamase inhibitor closely related to relebactam
Excerpt: as §5, §6, §7

[9] = target: VIM-2 (Escherichia coli, UniProt Q5U7L7); assay: biochemical; conditions: CCF2-FA fluorescence assay; read-out: VIM2 IC50

IMP-1, sequence (P52699 whole entry, looked up, species assumed): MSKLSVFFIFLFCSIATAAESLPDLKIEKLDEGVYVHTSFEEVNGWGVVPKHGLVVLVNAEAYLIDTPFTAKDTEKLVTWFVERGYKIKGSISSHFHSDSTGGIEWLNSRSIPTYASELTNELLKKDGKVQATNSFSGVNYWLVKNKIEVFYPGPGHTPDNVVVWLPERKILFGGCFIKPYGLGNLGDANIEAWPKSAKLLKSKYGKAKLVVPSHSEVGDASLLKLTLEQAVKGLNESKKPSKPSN
NDM-1, sequence (C7C422 whole entry, looked up, species assumed): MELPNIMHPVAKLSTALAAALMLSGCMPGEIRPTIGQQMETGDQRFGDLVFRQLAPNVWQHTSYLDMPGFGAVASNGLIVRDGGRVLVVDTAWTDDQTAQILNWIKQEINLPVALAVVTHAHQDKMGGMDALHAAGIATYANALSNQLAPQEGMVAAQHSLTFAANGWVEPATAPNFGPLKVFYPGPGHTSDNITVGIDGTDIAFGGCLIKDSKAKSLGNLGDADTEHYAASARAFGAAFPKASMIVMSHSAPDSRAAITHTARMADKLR

Row | Compound | IC50 [1] | CLB30016 E. coli MITC95 NDM [2] | CL5741 S. marcescens MITC95 IMP [3] | IHMA599644 K. pneumoniae MITC95 VIM [4] | MB9798 MITC95 P. aeruginosa uM Efflux WT [5] | Efflux ratio [5] | IC50 [6] | IC50 [7] | MB9799 MITC95 P. aeruginosa uM Efflux Mutant [8] | IC50 [9]
1 | CC1CC(CN)CCN1c1ccc(S(=O)(=O)NC[C@H](O)CN)c(S(N)(=O)=O)c1-c1nn[nH]n1 (stereo partly drawn) [Example 4, N1-((R)-3-amino-2-hydroxypropyl)-4-(4-(aminomethyl)-2-methylpiperidin-1-yl)-3-(2H-tetrazol-5-yl)benzene-1,2-disulfonamide] | 2.17 nM | 3.13 µM | 1.56 µM | 3.13 µM | 1.56 µM | 2.00 | 0.18 nM | 9.4 nM | 0.78 µM | 2.4 nM
2 | NC[C@@H](O)CNS(=O)(=O)c1ccc(N2CCC[C@@H](NCCO)C2)c(-c2nn[nH]n2)c1S(N)(=O)=O [Example 130, N1-((R)-3-amino-2-hydroxypropyl)-4-((R)-3-((2-hydroxyethyl)amino)piperidin-1-yl)-3-(2H-tetrazol-5-yl)benzene-1,2-disulfonamide bis(2,2,2-trifluoroacetate)] | 32 nM | 0.78 µM | 3.13 µM | 1.56 µM | 12.50 µM | 4.00 | 4.21 nM | 128 nM | 3.13 µM | 5.47 nM
3 | NC[C@@H](O)CNS(=O)(=O)c1ccc(N2CCC3(CCNC3)C2)c(-c2nn[nH]n2)c1S(N)(=O)=O (some centres unmarked) [Example 133, di-trifluoroacetic acid] | 12.7 nM | 0.78 µM | 1.56 µM | 0.78 µM | 3.13 µM | 2.00 | 2.07 nM | 24 nM | 1.56 µM | 57.9 nM
4 | NC[C@@H](O)CNS(=O)(=O)c1ccc(N2CC[C@H](N)C2)c(-c2nn[nH]n2)c1S(N)(=O)=O [Example 126, N1-((R)-3-amino-2-hydroxypropyl)-4-((S)-3-aminopyrrolidin-1-yl)-3-(2H-tetrazol-5-yl)benzene-1,2-disulfonamide] | 200 nM | 1.56 µM | 3.13 µM | 0.78 µM | 6.25 µM | 2.00 | 7.7 nM | 124 nM | 3.13 µM | 32.5 nM
5 | NS(=O)(=O)c1c(S(=O)(=O)N[C@@H]2CCNC2)ccc(N2CCC(CCO)CC2)c1-c1nnn[nH]1 [Example 98, 4-[4-(2-hydroxyethyl)piperidin-1-yl]-N1-[(3R)-pyrrolidin-3-yl]-3-(1H-tetrazol-5-yl)benzene-1,2-disulfonamide] | 0.08 nM | 12.50 µM | 6.25 µM | 12.50 µM | 3.13 µM | 1.00 | 0.15 nM | 0.13 nM | 3.13 µM | 0.59 nM
6 | NS(=O)(=O)c1c(S(=O)(=O)C2CNC2)ccc(N2CCC(O)CC2)c1-c1nnn[nH]1 [Example 31, 6-(azetidin-3-ylsulfonyl)-3-(4-hydroxypiperidin-1-yl)-2-(1H-tetrazol-5-yl)benzenesulfonamide] | 1.67 nM | 1.56 µM | 3.13 µM | 3.13 µM | 6.25 µM | 4.00 | 0.89 nM | 1.89 nM | 1.56 µM | 3.36 nM
7 | NS(=O)(=O)c1c(S(=O)(=O)N[C@@H]2CCNC2)ccc(N2CC[C@@H](O)C2)c1-c1nnn[nH]1 [Example 99, 4-[(3R)-3-hydroxypyrrolidin-1-yl]-N1-[(3R)-pyrrolidin-3-yl]-3-(1H-tetrazol-5-yl)benzene-1,2-disulfonamide] | 0.92 nM | 1.56 µM | 3.13 µM | 6.25 µM | 3.13 µM | 1.00 | 2.66 nM | 1.33 nM | 3.13 µM | 3.22 nM
8 | NCCNS(=O)(=O)c1ccc(N2CCC(CN)CC2)c(-c2nnn[nH]2)c1S(N)(=O)=O [Example 35, N1-(2-aminoethyl)-4-(4-(aminomethyl)piperidin-1-yl)-3-(1H-tetrazol-5-yl)benzene-1,2-disulfonamide] | 3.6 nM | 0.39 µM | 0.78 µM | 3.13 µM | 0.78 µM | 1.00 | 0.32 nM | 5.1 nM | 0.78 µM | 6.69 nM
